Results from patent US20230212549A1, “COMPOUNDS COMPRISING A […] LIGAND AND USE THEREOF” (priority 2021, published 2023).
Numbered stars: 1 amine (or outer) side, 2 acyl side, 3 side chain; on linkers, the order of the positions; unused ones are H or OH. Bridge positions count the residues as written; N and C are the ends. Square brackets hold non-standard residues; d marks the D form. Peptide text beside a SMILES is read from it. * marks the point of attachment. ξ: configuration not given here. X17 = NC(=O)[C@H](CCCCNC(=O)CN1CCN(CC(=O)O)CCN(CC(=O)O)CCN(CC(=O)O)CC1)NC(=O)CCC(=O)NCCCOCCOCCOCCCN*; TBMB(SCH2CH2NH-DOTA) = O=C(O)CN1CCN(CC(=O)O)CCN(CC(=O)NCCSCc2cc(C[*:1])cc(C[*:2])c2)CCN(CC(=O)O)CC1; X11 = O=C(O)CN1CCN(CC(=O)O)CCN(C(CCC(=O)NCCSCc2cc(C[*:1])cc(C[*:2])c2)C(=O)O)CC1; 1Nal = N[C@@H](Cc1cccc2ccccc12)C(=O)O; mXylylene = c1cc(C[*:1])cc(C[*:2])c1; Hexanoyl = CCCCCC(=O)*; CO = O=C([*:1])[*:2]; ξC = NC(CS)C(=O)O; NHBu = CCCCN*

Columns and labels:
[1] = target: T1, FAP-expressing human WI-38 fibroblasts (Homo sapiens, UniProt Q12884); assay: Competitive FACS binding assay
T1 construct: FAP-expressing human WI-38 fibroblasts (ECACC) were cultured in EMEM; host or cells: WI-38 human fibroblasts
T1 sequence (Q12884 whole entry): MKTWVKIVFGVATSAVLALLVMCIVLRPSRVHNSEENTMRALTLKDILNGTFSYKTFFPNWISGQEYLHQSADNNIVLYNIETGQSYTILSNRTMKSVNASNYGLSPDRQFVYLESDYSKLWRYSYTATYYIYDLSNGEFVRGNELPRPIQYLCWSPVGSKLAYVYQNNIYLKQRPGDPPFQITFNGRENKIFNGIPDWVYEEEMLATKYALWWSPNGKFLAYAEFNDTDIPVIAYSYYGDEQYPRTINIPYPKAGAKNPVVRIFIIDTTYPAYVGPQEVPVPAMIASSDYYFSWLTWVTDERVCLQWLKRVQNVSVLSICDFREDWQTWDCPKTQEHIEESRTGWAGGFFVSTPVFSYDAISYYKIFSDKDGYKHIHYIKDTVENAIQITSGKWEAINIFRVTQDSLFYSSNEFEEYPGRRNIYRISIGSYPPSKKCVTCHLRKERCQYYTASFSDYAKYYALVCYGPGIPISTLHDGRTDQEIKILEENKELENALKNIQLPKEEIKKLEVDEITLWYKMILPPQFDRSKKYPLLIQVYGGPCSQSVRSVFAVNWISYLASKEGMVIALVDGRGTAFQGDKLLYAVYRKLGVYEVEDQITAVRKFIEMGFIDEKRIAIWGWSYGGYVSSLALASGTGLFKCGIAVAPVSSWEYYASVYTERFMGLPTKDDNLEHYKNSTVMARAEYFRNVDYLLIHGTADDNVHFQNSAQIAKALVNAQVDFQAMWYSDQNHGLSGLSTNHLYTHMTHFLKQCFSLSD
Description: Cells were analyzed in an Attune NxT flow cytometer. […] […].
Cells were analyzed in an Attune NxT flow cytometer. […]

Human recombinant FAP [2] = target: T2, Human recombinant FAP (Homo sapiens, UniProt Q12884); assay: Surface plasmon resonance (Biacore) assay; type: binding; conditions: for pKD Category: Biacore assay
T2 sequence (Q12884 whole entry): as above

Human recombinant FAP [3] = target: T2, Human recombinant FAP; assay: FRET-based FAP protease activity assay; type: biochemical; set-up: purchased R&D systems 3715-SE
in vivo = conditions: female, athymic nude, mouse, iv, ^68Ga-labeled, PET/CT; for tissue uptake at 0.25 h: 0.25 h post tracer injection; for tissue uptake at 1 h: 1 h post tracer injection; for tissue uptake at 3 h: 3 h post tracer injection
[4] = pIC50 Category (Activity), FRET-based FAP protease activity assay, recombinant human FAP, 37° C.
[5] = pIC50 Category (Activity), FRET-peptide substrate, 37° C.

Compound | IC50 [1] [nM] | Kd (Human recombinant FAP [2]) [nM] | IC50 (Human recombinant FAP [3]; [4]) [nM] | IC50 (Human recombinant FAP [3]; [5]) [nM] | also measured
CCCCCC(=O)N[C@H]1CSCc2cc(CSCCNC(=O)CN3CCN(CC(=O)O)CCN(CC(=O)O)CCN(CC(=O)O)CC3)cc(c2)CSC[C@@H](C(=O)N[C@H](CC(=O)O)C(N)=O)NC(=O)[C@H](Cc2ccccc2)NC(=O)[C@H](CCC(N)=O)NC(=O)[C@H]([C@@H](C)O)NC(=O)[C@@H]2CCCN2C(=O)[C@@H]2CCCN2C1=O [3BP-3681, Hex-[Cys(tMeBn(DOTA-AET))-Pro-Pro-Thr-Gln-Phe-Cys]-asp-NH2] | < 10 | < 10 | < 10 | – | –
CCCCNC(=O)N[C@H]1CSCc2cc(cc(CN3CCN(C(=O)CN4CCN(CC(=O)O)CCN(CC(=O)O)CCN(CC(=O)O)CC4)CC3)c2)CSC[C@@H](C(=O)O)NC(=O)[C@H](Cc2ccccc2)NC(=O)[C@H](CCC(N)=O)NC(=O)[C@H]([C@@H](C)O)NC(=O)[C@@H]2CCCN2C(=O)[C@@H]2CCCN2C1=O [3BP-4564, nBu-CAyl-[Cys(tMeBn(DOTA-PP))-Pro-Pro-Thr-Gln-Phe-Cys]-OH] | < 10 | < 10 | – | < 10 | –
CCOCCC(=O)N[C@H]1CSCc2cc(CSCCNC(=O)CN3CCN(CC(=O)O)CCN(CC(=O)O)CCN(CC(=O)O)CC3)cc(c2)CSC[C@@H](C(=O)O)NC(=O)[C@H](Cc2ccccc2)NC(=O)[C@H](CCC(N)=O)NC(=O)[C@H]([C@@H](C)O)NC(=O)[C@@H]2CCCN2C(=O)[C@@H]2CCCN2C1=O [3BP-3918, EtOPr-[Cys(tMeBn(DOTA-AET))-Pro-Pro-Thr-Gln-Phe-Cys]-OH] | < 10 | < 10 | – | < 10 | pKD Category (Human recombinant FAP [2]): A (Category A stands for pKD values >8.0)
CCCCCC(=O)N[C@H]1CSCc2cc(CSCCNC(=O)CN3CCN(CC(=O)O)CCN(CC(=O)O)CCN(CC(=O)O)CC3)cc(c2)CSC[C@@H](C(=O)O)NC(=O)[C@H](Cc2cccc3ccccc23)NC(=O)[C@H](CCC(N)=O)NC(=O)[C@H]([C@@H](C)O)NC(=O)[C@@H]2CCCN2C(=O)[C@@H]2CCCN2C1=O [3BP-3650, Hex-[Cys(tMeBn(DOTA-AET))-Pro-Pro-Thr-Gln-1Ni-Cys]-OH] (Hexanoyl-CPPTQ[1Nal]C-OH; linker 1-7 via TBMB(SCH2CH2NH-DOTA)) | < 10 | < 10 | < 10 | – | –
CCCCCC(=O)N[C@H]1CSCc2cc(CSCCNC(=O)CN3CCN(CC(=O)O)CCN(CC(=O)O)CCN(CC(=O)O)CC3)cc(c2)CSC[C@@H](C(=O)N[C@@H](CO)C(=O)O)NC(=O)[C@H](Cc2ccccc2)NC(=O)[C@H](CCC(N)=O)NC(=O)[C@H]([C@@H](C)O)NC(=O)[C@@H]2CCCN2C(=O)[C@@H]2CCCN2C1=O [3BP-3658, Hex-[Cys(tMeBn(DOTA-AET))-Pro-Pro-Thr-Gln-Phe-Cys]-Ser-OH] (Hexanoyl-CPPTQFCS-OH; linker 1-7 via TBMB(SCH2CH2NH-DOTA)) | < 10 | < 10 | < 10 | – | –
CCCC[C@H](NC(=O)CCC(=O)NCCCOCCOCCOCCCNC(=O)[C@H](CCC(=O)NC[C@H](O)[C@@H](O)[C@H](O)[C@H](O)CO)NC(=O)C(CNCCN)CNCCN)C(=O)N[C@H]1CSCc2cccc(c2)CSC[C@@H](C(=O)O)NC(=O)[C@H](Cc2ccccc2)NC(=O)[C@H](CCC(N)=O)NC(=O)[C@H]([C@@H](C)O)NC(=O)[C@@H]2CCCN2C(=O)[C@@H]2CCCN2C1=O [3BP-4246, N4Ac-Glu(AGLU)-Ttds-Nle-[Cys-(3MeBn)-Pro-Pro-Thr-Gln-Phe-Cys]-OH] | 10 to 79.4 | < 10 | – | 10 to 79.4 | –
CC(C)CCC(=O)N[C@H]1CSCc2cc(CSCCNC(=O)CN3CCN(CC(=O)O)CCN(CC(=O)O)CCN(CC(=O)O)CC3)cc(c2)CSC[C@@H](C(=O)O)NC(=O)[C@H](Cc2ccccc2)NC(=O)[C@H](CCC(N)=O)NC(=O)[C@H]([C@@H](C)O)NC(=O)[C@@H]2CCCN2C(=O)[C@@H]2CCCN2C1=O [3BP-3907, iHex-[Cys(tMeBn(DOTA-AET))-Pro-Pro-Thr-Gln-Phe-Cys]-OH] | < 10 | < 10 | – | < 10 | pKD Category (Human recombinant FAP [2]): A (Category A stands for pKD values >8.0)
CCCCCC(=O)N[C@H]1CSCc2cccc(c2)CSC[C@@H](C(=O)N[C@@H](CC(=O)O)C(=O)NCCCOCCOCCOCCCNC(=O)CCC(=O)N[C@@H](CCCCNC(=O)CN2CCN(CC(=O)O)CCN(CC(=O)O)CCN(CC(=O)O)CC2)C(N)=O)NC(=O)[C@H](Cc2ccccc2)NC(=O)[C@H](CCC(N)=O)NC(=O)[C@H]([C@@H](C)O)NC(=O)[C@@H]2CCCN2C(=O)[C@@H]2CCCN2C1=O [3BP-3395, Hex-[Cys(3MeBn)-Pro-Pro-Thr-Gln-Phe-Cys]-Asp-Ttds-Lys(DOTA)-NH2] (Hexanoyl-CPPTQFCD-X17; linker 1-7 via mXylylene) | < 10 | < 10 | < 10 | – | –
CCCCCC(=O)N[C@H]1CSCc2cc(CSCCNC(=O)CN3CCN(CC(=O)O)CCN(CC(=O)O)CCN(CC(=O)O)CC3)cc(c2)CSC[C@@H](C(=O)N(C)CC(=O)O)NC(=O)[C@H](Cc2ccccc2)NC(=O)[C@H](CCC(N)=O)NC(=O)[C@H]([C@@H](C)O)NC(=O)[C@@H]2CCCN2C(=O)[C@@H]2CCCN2C1=O [3BP-3659, Hex-[Cys(tMeBn(DOTA-AET))-Pro-Pro-Thr-Gln-Phe-Cys]-Nmg-OH] | < 10 | < 10 | < 10 | – | –
CCCCCC(=O)N[C@H]1CSCc2cc(CSCCNC(=O)CN3CCN(CC(=O)O)CCN(CC(=O)O)CCN(CC(=O)O)CC3)cc(c2)CSC[C@@H](C(=O)NCC(=O)O)NC(=O)[C@H](Cc2ccccc2)NC(=O)[C@H](CCC(N)=O)NC(=O)[C@H]([C@@H](C)O)NC(=O)[C@@H]2CCCN2C(=O)[C@@H]2CCCN2C1=O [3BP-3656, Hex-[Cys(tMeBn(DOTA-AET))-Pro-Pro-Thr-Gln-Phe-Cys]-Gly-OH] (Hexanoyl-CPPTQFCG-OH; linker 1-7 via TBMB(SCH2CH2NH-DOTA)) | < 10 | < 10 | < 10 | – | –
CCCCCC(=O)N[C@H]1CSCc2cc(CSCCNC(=O)CN3CCN(CC(=O)O)CCN(CC(=O)O)CCN(CC(=O)O)CC3)cc(c2)CSC[C@@H](C(=O)O)NC(=O)[C@H](Cc2ccccc2)NC(=O)[C@H](CCC(N)=O)NC(=O)[C@H]([C@@H](C)O)NC(=O)[C@@H]2C[C@@H](O)CN2C(=O)[C@@H]2CCCN2C1=O [3BP-3679, Hex-[Cys(tMeBn(DOTA-AET))-Pro-Hyp-Thr-Gln-Phe-Cys]-OH] | < 10 | < 10 | < 10 | – | –
CCCCOC(=O)N[C@H]1CSCc2cc(CSCCNC(=O)CN3CCN(CC(=O)O)CCN(CC(=O)O)CCN(CC(=O)O)CC3)cc(c2)CSC[C@@H](C(=O)O)NC(=O)[C@H](Cc2ccccc2)NC(=O)[C@H](CCC(N)=O)NC(=O)[C@H]([C@@H](C)O)NC(=O)[C@@H]2CCCN2C(=O)[C@@H]2CCCN2C1=O [3BP-3941, nBu-COyl-[Cys(tMeBn(DOTA-AET))-Pro-Pro-Thr-Gln-Phe-Cys]-OH] | < 10 | < 10 | – | < 10 | –
CCCCCC(=O)N[C@H]1CSCc2cc(CSCCNC(=O)CCC(=O)NCCCOCCOCCOCCCNC(=O)CCC(=O)NCCCOCCOCCOCCCNC(=O)CCC(=O)NCCCOCCOCCOCCCNC(=O)CCC(=O)NCCCOCCOCCOCCCNC(=O)c3ccc4c(c3)C(=O)OC43c4ccc(N)c(S(=O)(=O)O)c4Oc4c3ccc(N)c4S(=O)(=O)O)cc(c2)CSC[C@@H](C(=O)O)NC(=O)[C@H](Cc2ccccc2)NC(=O)[C@H](CCC(N)=O)NC(=O)[C@H]([C@@H](C)O)NC(=O)[C@@H]2CCCN2C(=O)[C@@H]2CCCN2C1=O [3BP-4232, Hex--[C(tMeBn(AF488--Ttds--Ttds--Ttds--Ttds--AET))-PPTQFC]-OH] | – | 100 to 794 | – | – | –
CCCCNC(=O)N[C@H]1CSCc2cc(CSCCNC(=O)CCC(C(=O)O)N3CCN(CC(=O)O)CCN(CC(=O)O)CC3)cc(c2)CSCC(C(=O)O)NC(=O)[C@H](Cc2ccccc2)NC(=O)[C@H](CCC(=O)O)NC(=O)[C@H]([C@@H](C)O)NC(=O)[C@@H]2CCCN2C(=O)[C@@H]2CCCN2C1=O (stereo partly drawn) [3BP-4724, nBu-CAyl-[Cys(tMeBn(NODAGA-AET))-Pro-Pro-Thr-Glu-Phe-Cys]-OH] ({NHBu-CO}-CPPTEF[ξC]-OH; linker 1-7 via X11) | < 10 | – | – | – | tissue uptake at 0.25 h (in vivo; blood pool surrogate (BPS), uptake BPS 0.25 h, BPS (blood pool surrogate)): 2.17 %ID/g; tissue uptake at 1 h (in vivo; blood pool surrogate (BPS), uptake BPS 1 h, BPS (blood pool surrogate)): 1.04 %ID/g; tissue uptake at 3 h (in vivo; blood pool surrogate (BPS), uptake BPS 3 h, BPS (blood pool surrogate)): 0.49 %ID/g; tissue uptake at 0.25 h (in vivo; kidneys, uptake Kidneys 0.25 h): 4.28 %ID/g; tissue uptake at 1 h (in vivo; kidneys, uptake Kidneys 1 h): 1.87 %ID/g; tissue uptake at 3 h (in vivo; kidneys, uptake Kidneys 3 h): 0.86 %ID/g; tissue uptake at 0.25 h (in vivo; tumor, uptake Tumor 0.25 h, HEK-FAP tumor): 3.87 %ID/g; tissue uptake at 1 h (in vivo; tumor, uptake Tumor 1 h, HEK-FAP tumor): 4.37 %ID/g; tissue uptake at 3 h (in vivo; tumor, uptake Tumor 3 h, HEK-FAP tumor): 4.46 %ID/g; IC50 (Human recombinant FAP [3]; pIC50 Category (activity), Recombinant human FAP): 10 to 79.4 nM
